Measurements: the NIST ThermoML archive (doi:10.1021/je800586u)

Details: Crystal

C1CSCCS1 [1,4-dithiacyclohexane]
vapor or sublimation pressure [kPa]
Details	296.65 K	355.75 K	359.45 K	362.35 K	367.35 K	370.65 K	374.05 K	374.25 K	376.95 K
Rate of evaporation	–	1.067	1.333	1.893	2.653	3.246	3.826	3.906	4.626
Transpiration method	0.00918	–	–	–	–	–	–	–	–
